Where two headings read alike, the source gives them in different places.
Tests used:
SMOV2 (A) = experiment: SRB proliferation assay, SMOV2 (PPM1D amplified); format: cell-based; details: Homo sapiens, SMOV2, PP1MD amplified cell line (A)
From the text: (§1) All cell lines were obtained from ATCC except KPL1 which was obtained from Leibniz Institute DSMZ-German Collection of Microorganisms and Cell Cultures, and SMOV2 which was obtained from Dr. Hiroaki Itamochi (Tottori University School of Medicine, Yonago, Japan; see also: ‘Establishment and characterization of human ovarian clear cell adenocarcinoma cell line (SMOV-2), and its cytotoxity by anticancer agents’, Yonamine K at al., Hum Cell., 1999, 12(3), 139-48; and ‘PPM1D Is a Potential Therapeutic Target in Ovarian Clear Cell Carcinoma’, David S. P. Tan et al., Clin Cancer Res, 2009, 15, 2269).
(§2) Representative compounds were assessed in a sulforhodamine B (SRB) proliferation assay in the cell lines shown in the Tables below, according to the following general procedure:
(§3) Cells were seeded in a 96 well plate at a number optimized for each cell line as known in the art; for example as described in Viachai et al, Nature Protocols, 2006, 1 1112-1116. Two fold dilutions of the compounds to be tested were made in culture medium so that, when diluted 5×, the final concentration in the wells was from 50 μM to 0.000191 μM (19 concentrations). A day after seeding the cells in 96 well plates, 25 μl of the compound diluted in the culture medium was added to 100 μl of the cells and incubated at 37° C. and 5% CO2 for 3 or 5 more days as required. After this time, cells were fixed by adding 10% ice cold TCA (in H2O) to 3% final concentration in the wells and by incubating at 4° C. for at least 2 h. Plates were washed 4 times in H2O and allowed to dry in the air. Added 100 μl of 0.057% SRB solution to the dried plates and incubated at room temperature for at least 30 min. Removed SRB solution from the plates and washed four times with 1% acetic acid. Plates were left overnight to dry in the air followed by addition of 100 μl of 10 mM Tris pH 10.5 to each well of the dried plates and incubation on a shaker for 5 min to solubilize the SRB. Optical density was measured at wave length of 490 nm using a plate reader and analysis performed to measure the GI50 using GraphPad PRISM.

TOV21G (NA) = experiment: SRB proliferation assay, TOV21G (non-amplified control); format: cell-based; details: Homo sapiens, 120 h, 5-day incubation, control not amplified (NA)
From the text: as §1, §2, §3

MCF7 (A) = experiment: SRB proliferation assay, MCF7 (amplified); format: cell-based; details: MCF7a, 120 h, 5-day incubation
From the text: as §1, §2
(§4) Cells were seeded in a 96 well plate at a number optimized for each cell line as known in the art; for example as described in Viachai et al, Nature Protocols, 2006, 1 1112-1116. Two fold dilutions of the compounds to be tested were made in culture medium so that, when diluted 5×, the final concentration in the wells was from 50 μM to 0.000191 μM (19 concentrations). […] Optical density was measured at wave length of 490 nm using a plate reader and analysis performed to measure the GI50 using GraphPad PRISM.

KPL1 (A) = experiment: SRB proliferation assay, KPL1 (amplified); format: cell-based; details: KPL-1, 120 h, 5-day incubation
From the text: as §1, §2, §4

MDAMB231 (NA) = experiment: SRB proliferation assay, MDAMB231 (non-amplified); format: cell-based; details: Homo sapiens, MDA-MB-231, 120 h; 5-day incubation; MDAMB231, not amplified (NA)
From the text: as §1, §2, §4

HeLa (NA) = experiment: SRB proliferation assay, HeLa (non-amplified); format: cell-based; details: Homo sapiens, 120 h, 5-day incubation, not amplified (NA)
From the text: as §1, §2, §4

Cama1 (NA) = experiment: SRB proliferation assay, Cama1 (non-amplified); format: cell-based; details: Homo sapiens, CAMA-1, 120 h; 5-day incubation; Cama1, not amplified (NA)
From the text: as §1, §2, §4

[1] = system: Phospho-p38, Phospho-p53 S15, cleaved PARP in SMOV2 cells; experiment: Western blot analysis of biomarker modulation in SMOV2 cells; format: cell-based, human; details: 24 hours treatment, FIG. 1
Protocol: FIG. 1 provides an image showing the results of a Western Blot (LDS-PAGE gel) for cleaved PARP, Phospho-p53 S15, Phospho-p38, and GAPDG, confirming modulation of the biomarkers expected for PP1 MD-mediated inhibition in SMOV2 cells as described in Example 2.
Biomarker modulation by representative compounds was assessed by Western blot analysis in SMOV2 cells using the following procedure:
On day one, 3×10^5 cells were plated per well in a 6 well plate. Next day cells were treated with DMSO control or indicated concentrations of the representative compounds for 24 hours. Treated cells were lysed in complete lysis buffer (50 mM NaCl, 20 mM Tris pH7.5, 1 mM EDTA, 1 mM EGTA, 1% Triton X100, 10 mM NaF, protease Inhibitor tablet and phosphatase inhibitor cocktails) on ice for 10 min. Soluble proteins were separated by centrifugation, and protein concentration was measured using Bradford assay. Samples with equal amount of proteins were prepared and run on LDS-PAGE. Separated proteins were transferred to the nitrocellulose membrane and probed with the Phospho-p38, Phospho-p53 S15, cleaved PARP, γ-H2AX and GAPDH antibodies.

In the case of `COCCOCc1cc(F)ccc1-c1nc(-c2ccc3[nH]c(=O)[nH]c3c2)cs1` [Compound 32, 5-(2-(4-fluoro-2-((2-methoxyethoxy)methyl)phenyl)thiazol-4-yl)-1H-benzo[d]imidazol-2(3H)-one], the GI50 (SMOV2 (A); 72 h, 3-day incubation, read-out: GI50 3-day SMOV2 (A) SRB) is reported as 4.8 nM, the GI50 (SMOV2 (A); 120 h, 5-day incubation, read-out: GI50 5-day SMOV2 (A) SRB) is reported as 1.6 nM and the GI50 (TOV21G (NA)) is reported as > 10000 nM. For the same molecule, the GI50 (MCF7 (A)) was 4.6 nM, the GI50 (KPL1 (A)) was 36 nM and the GI50 (MDAMB231 (NA)) was > 10000 nM. The GI50 (HeLa (NA)) was 5600 nM, the GI50 (Cama1 (NA)) was 3900 nM and the “biomarker modulation (Western blot: cleaved PARP, Phospho-p53 S15, Phospho-p38)” value [1] was “modulation of the biomarkers expected for PP1MD-mediated inhibition”.
